Assay results from publication PMC9494668 (ACS Omega, 2022).
In brackets after ≈: the same amount, converted by molar mass. Like-named read-outs stand apart in the source and are kept apart here.

Columns and labels:
[1] = system: Escherichia coli ATCC 25922; assay: Microtitre broth dilution MIC, Escherichia coli; format: cell-based; settings: ATCC25922, read-out: MIC, EC
[2] = system: Candida albicans ATCC 10321; assay: microbe, parasite or virus in culture; format: cell-based; settings: ATCC10321, read-out: MIC, CA
[3] = system: MCF7 human breast cancer cell line; assay: MTT cytotoxicity, MCF7; format: cell-based; settings: MCF7, 48 h, read-out: Anticancer activity IC50, MCF7
[4] = system: methicillin-resistant strains of Staphylococcus aureus ATCC 43300; assay: Microtitre broth dilution MIC, MRSA; format: cell-based; settings: ATCC43300|MRSA, read-out: MIC, MRSA
[5] = system: C26 colon carcinoma cell line; assay: MTT cytotoxicity, C26; format: cell-based; settings: 48 h, read-out: Anticancer activity IC50, C26
[6] = system: Pseudomonas aeruginosa ATCC 27853; assay: Microtitre broth dilution MIC, Pseudomonas aeruginosa; format: cell-based; settings: ATCC27853, read-out: MIC, PA
[7] = system: Aspergillus niger ATCC 16404; assay: microbe, parasite or virus in culture; format: cell-based; settings: ATCC16404, read-out: MIC, AN
[8] = system: H69PR human small cell lung cancer cell line; assay: MTT cytotoxicity, H69PR; format: cell-based; settings: 48 h, read-out: Anticancer activity IC50, H69PR
[9] = system: Streptococcus faecalis ATCC 29212; assay: Microtitre broth dilution MIC, Streptococcus faecalis; format: cell-based; settings: Enterococcus faecalis, ATCC29212, read-out: MIC, SF
[10] = system: methicillin-susceptible strains of Staphylococcus aureus ATCC 29213; assay: Microtitre broth dilution MIC, MSSA; format: cell-based; settings: ATCC29213|MSSA, read-out: MIC, MSSA
[11] = system: HepG2 human hepatocyte carcinoma cell line; assay: MTT cytotoxicity, HepG2; format: cell-based; settings: HepG2, 48 h, read-out: Anticancer activity IC50, HepG2
[12] = system: Salmonella enterica ATCC 10428; assay: Microtitre broth dilution MIC, Salmonella enterica; format: cell-based; settings: ATCC10428, read-out: MIC, SE
[13] = system: bacterial strains (EC, PA, SF, SE, MSSA, MRSA) and fungi (CA, AN); assay: Microtitre broth dilution MIC, stated over several strains; format: cell-based; settings: strains SF, SE, MSSA, and MRSA
DHFR = target: T1, DHFR (Homo sapiens, UniProt P00374); assay: In vitro dihydrofolate reductase inhibition assay; format: biochemical; settings: IC50 DHFR inhibitory activity, IC50 ± SEM
T1 sequence (P00374 1-187): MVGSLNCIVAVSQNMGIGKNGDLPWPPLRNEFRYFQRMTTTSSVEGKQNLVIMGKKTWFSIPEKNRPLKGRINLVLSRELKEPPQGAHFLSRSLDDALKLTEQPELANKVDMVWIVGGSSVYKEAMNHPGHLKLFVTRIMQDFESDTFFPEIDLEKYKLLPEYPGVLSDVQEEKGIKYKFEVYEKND

VEGFR-2 = VEGFR-2 (Homo sapiens, UniProt P35968); assay: In vitro VEGFR-2 kinase inhibition assay; format: biochemical
Sequence of VEGFR-2 (P35968 20-1356): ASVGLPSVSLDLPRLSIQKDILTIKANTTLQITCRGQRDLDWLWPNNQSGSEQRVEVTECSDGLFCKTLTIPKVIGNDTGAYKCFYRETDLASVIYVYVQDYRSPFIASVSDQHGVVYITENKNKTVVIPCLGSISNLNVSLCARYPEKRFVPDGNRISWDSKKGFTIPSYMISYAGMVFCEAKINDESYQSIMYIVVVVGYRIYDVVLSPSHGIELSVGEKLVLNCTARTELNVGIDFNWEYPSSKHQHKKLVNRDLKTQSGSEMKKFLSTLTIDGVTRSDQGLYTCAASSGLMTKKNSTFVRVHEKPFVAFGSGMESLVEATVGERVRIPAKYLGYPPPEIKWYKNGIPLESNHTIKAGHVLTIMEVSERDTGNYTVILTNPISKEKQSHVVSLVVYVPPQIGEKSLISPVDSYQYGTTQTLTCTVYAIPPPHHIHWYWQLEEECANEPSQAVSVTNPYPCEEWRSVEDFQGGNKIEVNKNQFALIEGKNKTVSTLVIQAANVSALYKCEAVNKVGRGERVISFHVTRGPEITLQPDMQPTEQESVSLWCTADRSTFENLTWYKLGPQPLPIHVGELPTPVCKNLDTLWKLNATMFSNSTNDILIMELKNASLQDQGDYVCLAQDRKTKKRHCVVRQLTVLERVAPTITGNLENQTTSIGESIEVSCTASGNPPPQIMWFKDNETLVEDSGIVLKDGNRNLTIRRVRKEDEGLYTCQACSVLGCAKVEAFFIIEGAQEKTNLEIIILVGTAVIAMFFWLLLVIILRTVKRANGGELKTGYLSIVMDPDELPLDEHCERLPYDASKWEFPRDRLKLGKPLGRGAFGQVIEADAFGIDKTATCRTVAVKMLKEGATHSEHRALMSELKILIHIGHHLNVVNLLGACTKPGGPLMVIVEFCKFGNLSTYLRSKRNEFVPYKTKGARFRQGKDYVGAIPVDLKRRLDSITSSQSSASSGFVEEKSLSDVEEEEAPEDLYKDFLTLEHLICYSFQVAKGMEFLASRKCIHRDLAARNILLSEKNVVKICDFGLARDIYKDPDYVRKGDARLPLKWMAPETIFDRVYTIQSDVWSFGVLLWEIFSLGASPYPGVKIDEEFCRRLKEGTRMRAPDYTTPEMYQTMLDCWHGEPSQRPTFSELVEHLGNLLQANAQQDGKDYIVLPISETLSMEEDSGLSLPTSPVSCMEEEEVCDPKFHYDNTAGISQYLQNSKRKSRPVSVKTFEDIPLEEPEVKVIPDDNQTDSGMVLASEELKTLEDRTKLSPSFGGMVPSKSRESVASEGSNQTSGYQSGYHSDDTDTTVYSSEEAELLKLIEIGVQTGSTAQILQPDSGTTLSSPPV

drug-resistant fungi = settings: ref [17]; cited from earlier work
[14] = system: Candida albicans, Candida glabrata, Candida krusei, and Candida tropicalis; settings: cited from earlier work

Structure (SMILES)	MIC [1] [mg/L]	MIC [2] [mg/L]	IC50 [3] [µM]	MIC [4] [mg/L]	IC50 [5] [µM]	MIC [6] [mg/L]	MIC [7] [mg/L]	IC50 [8] [µM]	MIC [9] [mg/L]	MIC [10] [mg/L]	IC50 [11] [µM]	MIC [12] [mg/L]	fold antibacterial activity relative to compound 5b [13]	IC50 (DHFR) [µM]	IC50 (VEGFR-2; IC50 VEGFR-2 inhibitory activity, IC50 ± SEM) [µM]	inhibitory activity on VEGFR-2 relative to DHFR (VEGFR-2; times better on the VEGFR-2 receptor than the DHFR receptor)	MIC50, drug-resistant fungi (drug-resistant fungi) [mg/L]	MIC50, Candida species ([14]; Candida albicans, glabrata, krusei, tropicalis, ref [17]) [mg/L]	MIC50, Candida species [14] [mg/L]
COc1cc(OC)c2c(O)cc(C(=O)NCc3ccc(Br)cc3)cc2c1 [7b, N-(4-bromobenzyl)-4-hydroxy-5,7-dimethoxy-2-naphthamide]	64 (≈ 154 µM)	64 (≈ 154 µM)	11.5 ± 1.61	64 (≈ 154 µM)	9.83 ± 1.54	64 (≈ 154 µM)	256 (≈ 615 µM)	21.3 ± 3.04	32 (≈ 76.9 µM)	32 (≈ 76.9 µM)	12.1 ± 1.09	32 (≈ 76.9 µM)	–	–	–	–	–	–	–
COc1cc(OC)c2cc(C(=O)NCc3ccc(Cl)cc3)cc(O)c2c1 [8a, N-(4-chlorobenzyl)-4-hydroxy-6,8-dimethoxy-2-naphthamide]	64 (≈ 172 µM)	64 (≈ 172 µM)	12.4 ± 1.34	128 (≈ 344 µM)	8.61 ± 1.49	64 (≈ 172 µM)	256 (≈ 689 µM)	25.4 ± 3.02	64 (≈ 172 µM)	32 (≈ 86.1 µM)	10.1 ± 1.17	64 (≈ 172 µM)	–	–	–	–	–	–	–
COc1cc(OC)c2c(O)cc(C(=O)NCc3ccc(Cl)cc3)cc2c1 [8b, N-(4-chlorobenzyl)-4-hydroxy-5,7-dimethoxy-2-naphthamide]	16 (≈ 43 µM)	64 (≈ 172 µM)	3.58 ± 1.06	16 (≈ 43 µM)	2.97 ± 0.98	64 (≈ 172 µM)	256 (≈ 689 µM)	12.8 ± 2.83	16 (≈ 43 µM)	8 (≈ 21.5 µM)	7.12 ± 1.25	16 (≈ 43 µM)	more than 2 fold	7.88 ± 0.442	0.384 ± 0.047	15–20 times	–	–	–
O=C(O)c1cn(C2CC2)c2cc(N3CCNCC3)c(F)cc2c1=O [Cipro, ciprofloxacin, reference compound]	16 (≈ 48.3 µM)	–	–	16 (≈ 48.3 µM)	–	16 (≈ 48.3 µM)	–	–	8 (≈ 24.1 µM)	8 (≈ 24.1 µM)	–	8 (≈ 24.1 µM)	–	–	–	–	–	–	–
OC(Cn1cncn1)(Cn1cncn1)c1ccc(F)cc1F [Flu, fluconazole, reference compound]	–	4 (≈ 13.1 µM)	–	–	–	–	128 (≈ 418 µM)	–	–	–	–	–	–	–	–	–	> 16	0.25 to 2.00	–
CC(=O)O[C@H]1C(=O)[C@@]2(C)[C@H]([C@H](OC(=O)c3ccccc3)[C@]3(O)C[C@H](OC(=O)[C@H](O)[C@@H](NC(=O)c4ccccc4)c4ccccc4)C(C)=C1C3(C)C)[C@]1(OC(C)=O)CO[C@@H]1C[C@@H]2O [PTX, paclitaxel, reference compound]	–	–	2.85 ± 0.43	–	3.96 ± 0.54	–	–	7.29 ± 0.91	–	–	5.75 ± 0.6	–	–	–	–	–	–	–	–
CN(C/C=C/c1ccccc1)Cc1cccc2ccccc12 [naftifine]	–	–	–	–	–	–	–	–	–	–	–	–	–	–	–	–	–	–	0.25 to 2.00
